Measurements reported in patent publication EP0193414A2, “Liposomes, process for their preparation and compositions containing them” (Fluck, David John, priority 1985, dated 1986).

How the values were obtained:
trypanosomiasis = details: free drug, cited from earlier work; for period of protection (prophylaxis): Samorin at 0.5-1.0 mg/kg, dependent on dosage and tsetse fly challenge
[1] = depot formation at the injection site after intramuscular injection in goats; type: in vivo, goat
Method: An injection site depot from another goat to which free Samorin in aqueous solution was administered by the same route and at the same dosage as that from this Example was noted to be more diffuse.
Liposomal Berenil was recovered from each depot.

[2] = cited from earlier work; for side effects: free drug, 1 mg/kg for homidium and 0.5-1.0 mg/kg for Samorin
[3] = free drug in aqueous solution; cited from earlier work

Row | Compound | period of protection (prophylaxis) (trypanosomiasis) | side effects [2] | other results
1 | N=C(N)c1ccc(N=NNc2ccc(C(=N)N)cc2)cc1 [Berenil, diminazene aceturate] | a few days only | – | depot at the injection site ([1]; goat, intramuscular, 3.5 mg/kg live weight (calculated as active ingredient)): no indication of a depot
2 | CC[n+]1c(-c2ccccc2)c2cc(N)ccc2c2ccc(N)cc21 [Homidium chloride, 2,7-diamino-9-phenyl-10-ethylphenanthridinium] | ≤ 60 days | – | –
3 | CC[n+]1c(-c2ccccc2)c2cc(NN=Nc3cccc(C(=N)N)c3)ccc2c2ccc(N)cc21.Cl.[Cl-] [Samorin, 8-[(m-amidinophenylazo)amino]-3-amino-5-ethyl-6-phenylphenanthridinium chloride hydrochloride] | 60 to 120 days | reaction by the injected tissue to the drug | dosage with therapeutic trypanocidal action (trypanosomiasis): 0.25 mg/kg; depot at the injection site ([1]; goat culled 15 days after intramuscular administration, 1 mg/kg live weight Samorin): more diffuse
4 | CC[n+]1c(-c2ccccc2)c2cc(N)ccc2c2ccc(N)cc21 [homidium, 2,7-diamino-9-phenyl-10-ethylphenanthridinium] | – | infrequent | drug depots after administration of free drug ([2]; intramuscular, free drug in aqueous solution): diffuse staining of muscle tissue
5 | CC[n+]1c(-c2ccccc2)c2cc(N/N=N/c3cccc(C(=N)N)c3)ccc2c2ccc(N)cc21.[Cl-] [isometamidium chloride] | – | – | stability in aqueous solution [3]: rapid lability
